Data from paper PMC5794198, “Inhibitors of Trypanosoma cruzi Sir2 related protein 1 as potential drugs against Chagas disease” (PLoS Neglected Tropical Diseases, 2018).
“Also recorded” adds a separate entry of the source.

Tests used:
[1] = test system: T. cruzi epimastigotes, wild-type (WT); experiment: T. cruzi epimastigote resazurin viability assay, wild-type; format: cell-based, Trypanosoma cruzi; conditions: CL-Brener, 64 h + 6 h resazurin; means ± SD (n = 4)
Experimental: T. cruzi epimastigotes were seeded at 1.25 x 10^6 cells/mL in a 96-well plate in the presence of varying concentrations of test compounds. Following a 64-hour incubation, 15 μL of a resazurin solution (Sigma-Aldrich; 1.1 mg/mL in PBS). […] Each assay was performed in at least triplicate in parallel to the known trypanocidal agent nifurtimox.

T. cruzi amastigotes = experiment: High-content screening assay on intracellular T. cruzi amastigotes; format: cell-based, Trypanosoma cruzi; conditions: Trypanosoma cruzi, C2C12, 72 h, Y strain in C2C12 host cells, 72 h; read-out: Anti-T. cruzi Activity Amastigotes (EC50 ± SD)
In short: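 C2C12 host cells were infected 24 hr with Y strain tissue culture-derived trypomastigotes, then exposed to compound for 72 hrs. After paraformaldehyde fixation and DAPI staining, high-content imaging segmented host nuclei and parasite kinetoplast DNA. Read-out was the average number of amastigotes per host cell.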

hERG channel = target: T1, hERG channel (Homo sapiens, UniProt Q12809); experiment: Predictor hERG Fluorescence Polarization Assay; format: binding
T1 construct: purchased Invitrogen
T1 sequence (Q12809 whole entry): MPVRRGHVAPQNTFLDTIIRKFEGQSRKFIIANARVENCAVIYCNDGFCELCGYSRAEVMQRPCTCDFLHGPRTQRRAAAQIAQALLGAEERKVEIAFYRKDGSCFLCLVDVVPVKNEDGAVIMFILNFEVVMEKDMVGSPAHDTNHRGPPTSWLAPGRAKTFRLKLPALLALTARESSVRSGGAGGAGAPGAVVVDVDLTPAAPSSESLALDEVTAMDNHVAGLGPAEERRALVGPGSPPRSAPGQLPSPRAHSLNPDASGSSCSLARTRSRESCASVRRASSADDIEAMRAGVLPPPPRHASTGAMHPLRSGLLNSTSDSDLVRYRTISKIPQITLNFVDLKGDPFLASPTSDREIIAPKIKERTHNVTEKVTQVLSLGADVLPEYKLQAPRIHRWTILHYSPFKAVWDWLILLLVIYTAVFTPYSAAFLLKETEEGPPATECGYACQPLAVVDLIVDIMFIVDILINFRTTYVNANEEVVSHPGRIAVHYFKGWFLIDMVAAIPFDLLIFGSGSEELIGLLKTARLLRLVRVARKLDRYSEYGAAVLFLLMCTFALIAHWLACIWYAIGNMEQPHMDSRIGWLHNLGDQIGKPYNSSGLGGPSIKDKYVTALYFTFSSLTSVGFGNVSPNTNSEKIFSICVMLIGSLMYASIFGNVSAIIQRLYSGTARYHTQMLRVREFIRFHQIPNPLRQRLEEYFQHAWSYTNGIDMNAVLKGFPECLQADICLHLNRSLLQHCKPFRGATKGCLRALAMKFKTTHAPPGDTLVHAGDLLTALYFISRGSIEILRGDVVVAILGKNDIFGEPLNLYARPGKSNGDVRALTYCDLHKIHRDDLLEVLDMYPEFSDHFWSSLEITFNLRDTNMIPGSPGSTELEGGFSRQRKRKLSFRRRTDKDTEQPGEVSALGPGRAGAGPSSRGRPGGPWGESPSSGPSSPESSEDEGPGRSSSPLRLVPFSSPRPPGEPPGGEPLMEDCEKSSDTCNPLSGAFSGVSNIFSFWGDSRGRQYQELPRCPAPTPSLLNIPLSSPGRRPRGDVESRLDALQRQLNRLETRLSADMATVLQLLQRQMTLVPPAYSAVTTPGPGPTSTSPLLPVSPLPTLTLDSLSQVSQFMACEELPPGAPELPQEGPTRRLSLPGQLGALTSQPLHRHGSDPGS
Experimental: To evaluate toxicity towards mammalian cell lines (hepatocytes (Seralab), neurons and MDCK cells (ATCC); a renal cell line from dogs), all the compounds were assayed with MTT [66]. Additionally, for cardiotoxicity evaluation, where toxic effects in cardiomyocytes could be affecting their function before being lethal, a hERG assay was performed according to the manufacturer’s protocol Predictor hERG Fluorescence Polarization Assay (Invitrogen). Briefly, inhibition of hERG channel was analysed by competition of BNIPSpd and a high-affinity red fluorescent hERG channel ligand. BNIPSpd (9) was mixed with the ligand and membranes containing hERG channel, incubated for 2 hrs at RT and the fluorescence polarization was measured using 530 / 590 nm ex/em filters using the Synergy 2 plate reader (Biotek).

T. cruzi Y strain (Luc+) = experiment: Mouse model of T. cruzi infection, bioluminescence imaging; format: in vivo, BALB/c mice; conditions: 5 mg/kg/day intravenously for 4 consecutive days from day 7 of infection; listed as BNIPSpd (9)
Experimental: To evaluate BNIPSpd (9) efficacy in vivo, five- to six-week-old female BALB/c mice (Charles River) and infected with T. cruzi trypomastigotes expressing luciferase. Parasites were collected from the supernatants of a monolayer of Vero infected cells, washed and suspended in PBS-glucose 0.2%, and injected intraperitoneally (1 x 10^4 per mouse). After 7 days of infection, mice were treated with drugs for 4 consecutive days orally with (benznidazole in 20% Kolliphor HS 15) or intravenously with (BNIPSpd (9) in 10% DMSO) at a dose of 100 or 5 mg/kg/day, respectively. Infection and treatment efficiency were evaluated following subcutaneous injection of 2.1 mg of luciferin and through live imaging using an IVIS Lumina LT (Perkin Elmer). Images of the animals were analysed using the Living Image software (Perkin Elmer).
Supplementary file pntd.0006180.s006.tif: S5 Fig In vivo efficacy testing of BNIPSpd (9). A) Mice were infected with 10^4 Luc^+ trypomastigotes by intraperitoneal injection. […] In the lower panel, bioluminescence signal of whole mice represented in average radiance (photons/sec/cm^2/sr) quantified before and after treatment. […] B) Snapshot Pharmacokinetics of BNIPSpd (9) in BALB/c mice by quantification of BNIPSpd (9) in the blood of mice by UHPLC-MS/MS ESI+ at different time-points after administration of a 5 mg/kg dose by intravenous injection. […]

[2] = Snapshot pharmacokinetics in blood after intravenous injection; format: in vivo, BALB/c mice; conditions: 5 mg/kg intravenous
Experimental: The pharmacokinetic profile of BNIPSpd was determined following intravenous injection of 5 mg/kg in BALB/c mice. The blood was collected from tail veins after 0, 5, 15, 30, 45 min, 1, 3, 24, 48 and 72 h of drug administration. Blood concentrations of the drug were analysed by UHPLC- ESI-MS/MS.
Supplementary file pntd.0006180.s006.tif: S5 Fig In vivo efficacy testing of BNIPSpd (9). A) Mice were infected with 10^4 Luc^+ trypomastigotes by intraperitoneal injection. Treatments (BZN, benznidazole at 100 mg/kg/day per os, and BNIPSpd (9) at 5 mg/kg/day by intravenous injection) were initiated 7 days after infection, as well as the respective controls (KP, Kolliphor HS 15 20% per os and DMSO 10% by intravenous injection). […] In the lower panel, bioluminescence signal of whole mice represented in average radiance (photons/sec/cm^2/sr) quantified before and after treatment. […] B) Snapshot Pharmacokinetics of BNIPSpd (9) in BALB/c mice by quantification of BNIPSpd (9) in the blood of mice by UHPLC-MS/MS ESI+ at different time-points after administration of a 5 mg/kg dose by intravenous injection. […] The dashed line represents the value of EC50 for BNIPSpd (9) in the in vitro assay against T. cruzi amastigotes, and the dotted line represents the lower limit of quantification of the technique. […]

For O=C1c2cccc3cccc(c23)C(=O)N1CCCNCCCCNCCCNCCCN1C(=O)c2cccc3cccc(c23)C1=O [Compound 9, BNIP Spermidine], the “EC50 against T. cruzi epimastigotes WT” value [1] was “moderate activity”, the EC50 (T. cruzi amastigotes) was 2840 ± 180 nM and the hERG channel functional (hERG channel) was 99.6%. For the same compound, the “Cardiotoxicity (hERG predictor)” value (hERG channel; fluorescence polarization competition, 2 hrs RT) was 0.36 ± 0.51%, the “In vivo activity (bioluminescence signal vs vehicle)” value (T. cruzi Y strain (Luc+)) was “did not exhibit any in vivo activity; also recorded: lack of in vivo activity” and the “Highest plasma concentration detected” value ([2]; at the 5 min time-point) was 1.70 µM. For the same compound, the “Blood level after the 3 h time-point” value ([2]; 3 h up to 72 h, lower limit of quantification 8.1 nM, listed as BNIPSpd (9)) was “below the level of detection; also recorded: no longer detected”.
